Test results as given in patent publication US20100234390A1, “NOVEL COMPOUND AND THEIR USE” (priority 2007, published 2010).

Key:
Assay in all cases: Agar dilution MIC
[1] = test system: M. catarrhalis ATCC 43617; assay type: cell-based, Moraxella catarrhalis; details: Moraxella catarrhalis, ATCC43617, 35° C., 16-20 hours, read-out: Antimicrobial Screening (MIC)
Summary of the method: (§1)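 Steps: dissolve compound in dimethyl sulfoxide; make two-fold serial dilutions in that solvent; incorporate each into molten MHA just before it sets; inoculate with a 1.5×10^7 CFU/mL saline suspension; incubate 16-20 hours at 35° C without added CO2.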

[2] = test system: M. catarrhalis ATCC 43627; assay type: cell-based, Moraxella catarrhalis; details: Moraxella catarrhalis, ATCC43627, 35° C., 16-20 hours, read-out: Antimicrobial Screening (MIC)
Summary of the method: as §1

[3] = test system: M. catarrhalis ATCC 43628; assay type: cell-based, Moraxella catarrhalis; details: Moraxella catarrhalis, ATCC43628, 35° C., 16-20 hours, read-out: Antimicrobial Screening (MIC)
Summary of the method: as §1

E. faecalis MRO 04205 = assay type: cell-based, Enterococcus faecalis; details: Enterococcus faecalis, MRO04205, 35° C., 16-20 hours, read-out: Antimicrobial Screening (MIC)
Summary of the method: as §1

E. faecalis ATCC 29212 = assay type: cell-based, Enterococcus faecalis; details: Enterococcus faecalis, ATCC29212, 35° C., 16-20 hours, read-out: Antimicrobial Screening (MIC)
Summary of the method: as §1

E. faecalis MRO 04050 = assay type: cell-based, Enterococcus faecalis; details: Enterococcus faecalis, MRO04050, 35° C., 16-20 hours, read-out: Antimicrobial Screening (MIC)
Summary of the method: as §1

E. faecalis MRO 04035 = assay type: cell-based, Enterococcus faecalis; details: Enterococcus faecalis, MRO04035, 35° C., 16-20 hours, read-out: Antimicrobial Screening (MIC)
Summary of the method: as §1

E. faecalis ATCC 51299 = assay type: cell-based, Enterococcus faecalis; details: Enterococcus faecalis, ATCC51299, 35° C., 16-20 hours, read-out: Antimicrobial Screening (MIC)
Summary of the method: as §1

[4] = test system: S. epidermidis MRO 002046; assay type: cell-based; details: Staphylococcus epidermidis, MRO002046, 35° C., 16-20 hours, read-out: Antimicrobial Screening (MIC)
Summary of the method: as §1

[5] = test system: S. saprophyticus MRO 02003; assay type: cell-based; details: Staphylococcus saprophyticus, MRO02003, 35° C., 16-20 hours, read-out: Antimicrobial Screening (MIC)
Summary of the method: as §1

[6] = test system: S. haemolyticus MRO 02064; assay type: cell-based; details: Staphylococcus haemolyticus, MRO02064, 35° C., 16-20 hours, read-out: Antimicrobial Screening (MIC)
Summary of the method: as §1

S. epidermidis MRO 02045 = assay type: cell-based; details: Staphylococcus epidermidis, MRO02045, 35° C., 16-20 hours, read-out: Antimicrobial Screening (MIC)
Summary of the method: as §1

S. epidermidis MRO 02002 = assay type: cell-based; details: Staphylococcus epidermidis, MRO02002, 35° C., 16-20 hours, read-out: Antimicrobial Screening (MIC)
Summary of the method: as §1

S. epidermidis MRO 02095 = assay type: cell-based; details: Staphylococcus epidermidis, MRO02095, 35° C., 16-20 hours, read-out: Antimicrobial Screening (MIC)
Summary of the method: as §1

S. aureus MRO 00030 = assay type: cell-based, Staphylococcus aureus; details: Staphylococcus aureus, MRO00030, 35° C., 16-20 hours, read-out: Antimicrobial Screening (MIC)
Summary of the method: as §1

S. aureus MRO 00048 = assay type: cell-based, Staphylococcus aureus; details: Staphylococcus aureus, MRO00048, 35° C., 16-20 hours, read-out: Antimicrobial Screening (MIC)
Summary of the method: as §1

S. aureus ATCC 29213 = assay type: cell-based, Staphylococcus aureus; details: Staphylococcus aureus, ATCC29213, 35° C., 16-20 hours, read-out: Antimicrobial Screening (MIC)
Summary of the method: as §1

S. aureus MRO 002053 = assay type: cell-based, Staphylococcus aureus; details: Staphylococcus aureus, MRO002053, 35° C., 16-20 hours, read-out: Antimicrobial Screening (MIC)
Summary of the method: as §1

S. aureus MRO 00013 = assay type: cell-based, Staphylococcus aureus; details: Staphylococcus aureus, MRO00013, 35° C., 16-20 hours, read-out: Antimicrobial Screening (MIC)
Summary of the method: as §1

S. aureus MRO 00059 = assay type: cell-based, Staphylococcus aureus; details: Staphylococcus aureus, MRO00059, 35° C., 16-20 hours, read-out: Antimicrobial Screening (MIC)
Summary of the method: as §1

S. aureus MRO 00055 = assay type: cell-based, Staphylococcus aureus; details: Staphylococcus aureus, MRO00055, 35° C., 16-20 hours, read-out: Antimicrobial Screening (MIC)
Summary of the method: as §1

S. aureus MRO 0001 = assay type: cell-based, Staphylococcus aureus; details: Staphylococcus aureus, MRO0001, 35° C., 16-20 hours, read-out: Antimicrobial Screening (MIC)
Summary of the method: as §1

S. aureus ATCC 43300 = assay type: cell-based, Staphylococcus aureus; details: Staphylococcus aureus, ATCC43300, 35° C., 16-20 hours, read-out: Antimicrobial Screening (MIC)
Summary of the method: as §1

S. aureus MRO 0003 = assay type: cell-based, Staphylococcus aureus; details: Staphylococcus aureus, MRO0003, 35° C., 16-20 hours, read-out: Antimicrobial Screening (MIC)
Summary of the method: as §1

E. faecium MRO 04038 = assay type: cell-based, Enterococcus faecium; details: Enterococcus faecium, MRO04038, 35° C., 16-20 hours, read-out: Antimicrobial Screening (MIC)
Summary of the method: as §1

E. faecium MRO 04198 = assay type: cell-based, Enterococcus faecium; details: Enterococcus faecium, MRO04198, 35° C., 16-20 hours, read-out: Antimicrobial Screening (MIC)
Summary of the method: as §1

E. faecium MRO 04037 = assay type: cell-based, Enterococcus faecium; details: Enterococcus faecium, MRO04037, 35° C., 16-20 hours, read-out: Antimicrobial Screening (MIC)
Summary of the method: as §1

E. faecium ATCC 700221 = assay type: cell-based, Enterococcus faecium; details: Enterococcus faecium, ATCC700221, 35° C., 16-20 hours, read-out: Antimicrobial Screening (MIC)
Summary of the method: as §1

Measured: MIC

COC(=S)NC[C@H]1CN(c2ccc(N3CCN(C(=O)Cn4cnnn4)CC3)c(F)c2)C(=O)O1 [Example 72, (S)—O-Methyl (3-(4-(4-(2-(1H-tetrazol-1-yl)acetyl)piperazin-1-yl)-3-fluorophenyl)-2-oxooxazolidin-5-yl)methylcarbamothioate]
2 µg/mL: [1] | [2] | [3]
1 µg/mL: [5] | S. aureus ATCC 29213 | S. aureus MRO 00013 | S. aureus MRO 00055 | S. aureus ATCC 43300 | S. aureus MRO 0003
0.5 µg/mL: all other assays above
